1 compound from patent publication US12065434B2, “Metabolites of GLP1R agonists” (Pfizer Inc., priority 2020, dated 2024) can be followed below.

Data set [1] concerns the target T1, human GLP-1R (Homo sapiens, UniProt P43220, L260F).
T1 construct: expressed in transfected cells
The experiment in a line: CHO GLP-1R Clone C6 - Assay 2 (HTRF cAMP agonist assay, low receptor density). Conditions: CHO GLP-1R Clone C6 (low receptor density). In kind it is cell-based. For orientation: In TR-FRET formats the signal depends on donor and acceptor labels being close together.
Procedure: GLP-1R-mediated agonist activity was determined with a cell-based functional assay utilizing an HTRF (Homogeneous Time-Resolved Fluorescence) cAMP detection kit (cAMP HI Range Assay Kit; Cis Bio cat #62AM6PEJ) that measures cAMP levels in the cell. The method is a competitive immunoassay between native cAMP produced by the cells and exogenous cAMP labeled with the dye d2. The tracer binding is visualized by a mAb anti-cAMP labeled with Cryptate. The specific signal (i.e. energy transfer) is inversely proportional to the concentration of cAMP in either a standard or an experimental sample.
The human GLP-1R coding sequence (NCBI Reference Sequence NP_002053.3, including naturally-occurring variant Leu260Phe) was subcloned into pcDNA5-FRT-TO and a clonal CHO cell line stably expressing a low receptor density was isolated using the Flp-In™ T-Rex™ System, as described by the manufacturer (ThermoFisher).
Cells were removed from cryopreservation, re-suspended in 40 mL of Dulbecco's Phosphate Buffered Saline (DPBS—Lonza Cat #17-512Q) and centrifuged at 800×g for 5 minutes at 22° C. The DPBS was aspirated, and the cell pellet was re-suspended in 10 mL of complete growth medium (DMEM:F12 1:1 Mixture with HEPES, L-Gln, 500 mL (DMEM/F12 Lonza Cat #12-719F), 10% heat inactivated fetal bovine serum (Gibco Cat #16140-071), 5 mL of 100× Pen-Strep (Gibco Cat #15140-122), 5 mL of 100× L-Glutamine (Gibco Cat #25030-081), 700 μg/mL Hygromycin (Invitrogen Cat #10687010) and 15 μg/mL Blasticidin (Gibco Cat #R21001). A 1 mL sample of the cell suspension in growth media was counted on a Becton Dickinson ViCell to determine cell viability and cell count per mL. The remaining cell suspension was then adjusted with growth media to deliver 1600 viable cells per well using a Matrix Combi Multidrop reagent dispenser, and the cells were dispensed into a white 384 well tissue culture treated assay plate (Corning 3570). The assay plate was then incubated for 48 hours at 37° C. in a humidified environment (95% O2, 5% CO2)
Varying concentrations of each compound to be tested (in DMSO) were diluted in assay buffer [HBSS with Calcium/Magnesium (Lonza/BioWhittaker cat #10-527F)/0.1% BSA (Sigma Aldrich cat #A7409-1L)/20 mM HEPES (Lonza/BioWhittaker cat #17-737E)] containing 100 μM 3-isobutyl-1-methylxanthin (IBMX; Sigma cat #15879). The final DMSO concentration in the compound/assay buffer mixture is 1%.
After 48 hours, the growth media was removed from the assay plate wells, and the cells were treated with 20 μL of the serially diluted compound in assay buffer for 30 minutes at 37° C. in a humidified environment (95% O2, 5% CO2). Following the 30 minute incubation, 10 μL of labeled d2 cAMP and 10 μL of anti-cAMP antibody (both diluted 1:20 in cell lysis buffer; as described in the manufacturer's assay protocol) were added to each well of the assay plate. The plates were then incubated at room temperature and after 60 minutes, changes in the HTRF signal were read with an Envision 2104 multi-label plate reader using excitation of 330 nm and emissions of 615 and 665 nm. Raw data were converted to nM cAMP by interpolation from a cAMP standard curve (as described in the manufacturer's assay protocol) and the percent effect was determined relative to a saturating concentration of the full agonist GLP-1 (1 μM) included on each plate. EC50 determinations were made from agonist dose response curves analyzed with a curve fitting program using a 4-parameter logistic dose response equation.

Data set [2] concerns the target human GLP-1R (Homo sapiens, UniProt P43220). In words: CHO GLP-1R Clone H6 - Assay 1 (HTRF cAMP agonist assay).
Procedure: (§1) GLP-1R-mediated agonist activity was determined with a cell-based functional assay utilizing an HTRF (Homogeneous Time-Resolved Fluorescence) cAMP detection kit (cAMP HI Range Assay Kit; CisBio cat #62AM6PEJ) that measures cAMP levels in the cell. The method is a competitive immunoassay between native cAMP produced by the cells and exogenous cAMP labeled with the dye d2. The tracer binding is visualized by a mAb anti-cAMP labeled with Cryptate. The specific signal (i.e. energy transfer) is inversely proportional to the concentration of cAMP in either standard or experimental sample.
(§2) The human GLP-1R coding sequence (NCBI Reference Sequence NP_002053.3, including naturally-occurring variant Gly168Ser) was subcloned into pcDNA3 (Invitrogen) and a cell line stably expressing the receptor was isolated (designated Clone H6).
(§3) Cells were removed from cryopreservation, re-suspended in 40 mL of Dulbecco's Phosphate Buffered Saline (DPBS—Lonza Cat #17-512Q) and centrifuged at 800×g for 5 minutes at 22° C. The cell pellet was then re-suspended in 10 mL of growth medium [DMEM/F12 1:1 Mixture with HEPES, L-Gln, 500 mL (DMEM/F12 Lonza Cat #12-719F), 10% heat inactivated fetal bovine serum (Gibco Cat #16140-071), 5 mL of 100× Pen-Strep (Gibco Cat #15140-122), 5 mL of 100× L-Glutamine (Gibco Cat #25030-081) and 500 μg/mL Geneticin (G418) (Invitrogen #10131035)]. A 1 mL sample of the cell suspension in growth media was counted on a Becton Dickinson ViCell to determine cell viability and cell count per mL. The remaining cell suspension was then adjusted with growth media to deliver 2000 viable cells per well using a Matrix Combi Multidrop reagent dispenser, and the cells were dispensed into a white 384 well tissue culture treated assay plate (Corning 3570). The assay plate was then incubated for 48 hours at 37° C. in a humidified environment in 5% carbon dioxide.
(§4) Varying concentrations of each compound to be tested (in DMSO) were diluted in assay buffer (HBSS with Calcium/Magnesium (Lonza/BioWhittaker cat #10-527F)/0.1% BSA (Sigma Aldrich cat #A7409-1L)/20 mM HEPES (Lonza/BioWhittaker cat #17-737E) containing 100 μM 3-isobutyl-1-methylxanthin (IBMX; Sigma cat #15879). The final DMSO concentration is 1%.
(§5) After 48 hours, the growth media was removed from the assay plate wells, and the cells were treated with 20 μL of the serially diluted compound in assay buffer for 30 minutes at 37° C. in a humidified environment in 5% carbon dioxide. Following the 30 minute incubation, 10 μL of labeled d2 cAMP and 10 μL of anti-cAMP antibody (both diluted 1:20 in cell lysis buffer; as described in the manufacturer's assay protocol) were added to each well of the assay plate. The plates were then incubated at room temperature and after 60 minutes, changes in the HTRF signal were read with an Envision 2104 multi-label plate reader using excitation of 330 nm and emissions of 615 and 665 nm. Raw data were converted to nM cAMP by interpolation from a cAMP standard curve (as described in the manufacturer's assay protocol) and the percent effect was determined relative to a saturating concentration of the full agonist GLP-17-36 (1 μM) included on each plate. EC50 determinations were made from agonist dose-response curves analyzed with a curve fitting program using a 4-parameter logistic dose response equation.
In data set [3] the target is human GLP-1R (Homo sapiens, UniProt P43220, G168S). The description is as above. As to conditions: read-out: Assay 1 Emax (%).
Procedure: as §1, §2, §3, §4, §5
Data set [4] can be described thus: Metabolite profiling of pooled human plasma after repeat oral dosing of Compound 1 (HPLC/UV/MS).
Procedure: Plasma samples from nine human subjects following oral administration of 120 mg BID for 28 days in a clinical study were examined for metabolites.
Individual subject's plasma (from nine human subjects with 120 mg BID dose Day 28) were pooled in proportion to the time period represented by each to yield a pool for profiling that was representative of the AUC (0-12 hr) according to the method of Hamilton et al. [Hamilton R A, Garnett W R, Kline B J. Determination of a mean valproic acid serum level by assay of a single pooled sample. […] Pooled plasma time points were first prepared by aliquoting equal amounts (1.0 mL) of plasma from each subject prior to making a single Hamilton pool. Blank plasma pools were made by taking equal aliquots of predose samples. To a 2 mL aliquot of each pooled plasma sample was added 6 mL of acetonitrile and then mixed. Protein precipitated samples were centrifuged for 5 minutes at 2000×g and the supernatants were transferred to other clean 15 mL centrifuge tubes. Samples were dried using an evaporative centrifuge set to 37° C. Samples were reconstituted using 0.2 mL of 5:95 acetonitrile:water and analyzed by HPLC/UV/MS.
Reconstituted samples were analyzed by positive ion HPLC/UV/MS using a Thermo Orbitrap Elite mass spectrometer operating in positive ion electrospray mode. Xcalibur software version 3.0.63 was used to control the HPLC/UV/MS system. Full scan data were collected at 15,000 resolution. Data dependent product ion scans of the two most intense ions found in the full scan were obtained at 15,000 resolution. The dynamic exclusion function was used with a 10 second exclusion duration after 3 successive product ion scans with an early exclusion if the precursor ion fell below a signal to noise ratio of 20. The HPLC system consisted of an Accela quaternary solvent delivery pump, an Accela autoinjector, an Accela PDA Plus photodiode array detector (Thermo Electron Corporation). Chromatography was performed on a Phenomenex Kinetex column (2.1 mm×100 mm, 2.6 μm) at 45° C. using a HotSleeve column heater (Analytical Sales and Services). The mobile phase was composed of 0.1% formic acid in water (solvent A) and acetonitrile (solvent B). The solvent delivery gradient program was as follows:

T1 sequence (P43220 24-463 L260F): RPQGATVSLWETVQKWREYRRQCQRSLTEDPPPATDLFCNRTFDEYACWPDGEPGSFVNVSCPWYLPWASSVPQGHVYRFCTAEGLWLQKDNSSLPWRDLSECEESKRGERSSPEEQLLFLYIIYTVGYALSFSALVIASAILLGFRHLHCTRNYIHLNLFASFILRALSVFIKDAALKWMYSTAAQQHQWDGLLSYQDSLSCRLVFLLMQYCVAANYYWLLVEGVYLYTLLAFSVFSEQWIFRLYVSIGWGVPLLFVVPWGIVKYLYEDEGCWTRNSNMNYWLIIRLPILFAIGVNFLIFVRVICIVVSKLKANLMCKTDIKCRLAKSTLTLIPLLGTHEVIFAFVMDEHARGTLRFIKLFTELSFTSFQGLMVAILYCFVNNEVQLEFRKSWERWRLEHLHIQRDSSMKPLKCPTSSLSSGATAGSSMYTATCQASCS
human GLP-1R (Homo sapiens, UniProt P43220, G168S), sequence (P43220 24-463 G168S): as the sequence (P43220 24-463 L260F) above, with G145S, F237L counted along it
human GLP-1R (Homo sapiens, UniProt P43220), sequence (P43220 24-463 G168S): as the sequence (P43220 24-463 L260F) above, with G145S, F237L counted along it

A word on the Emax: it is the greatest response seen or fitted, relative to the assay's reference. The term EC50 denotes the midpoint of the concentration-response curve. High values mean lower potency in that assay, low ones higher potency in that assay. Take `N#Cc1ccc(COc2cccc(C3CCN(Cc4nc5ccc(C(=O)O[C@@H]6O[C@H](C(=O)O)[C@@H](O)[C@H](O)[C@H]6O)cc5n4C[C@@H]4CCO4)CC3)n2)c(F)c1` [Compound M1, (2S,3S,4S,5R,6S)-6-((2-((4-(6-((4-cyano-2-fluorobenzyl)oxy)pyridin-2-yl)piperidin-1-yl)methyl)-1-(((S)-oxetan-2-yl)methyl)-1H-benzo[d]imidazole-6-carbonyl)oxy)-3,4,5-trihydroxytetrahydro-2H-pyran-2-carboxylic acid]: the Emax at human GLP-1R [1] (arithmetic mean, relative to 1 μM GLP-1) was determined as 98%; on human GLP-1R [3], 114%. The figures for the EC50 on human GLP-1R [1] (geometric mean) and on human GLP-1R [2] were 2500 nM and 130 nM, respectively. The “observed as major or minor metabolite in human plasma” value in data set [4] (Compound 1 120 mg BID, Day 28) is recorded as “minor metabolite”. The “Plasma Extracts” value in data set [4] (Compound 1 120 mg oral BID, Day 28, HPLC/UV/MS) is reported as “+”.
